In article PMC12881674, “Activation of TRPV3 channels in bladder cancer cells stimulates ATP release” (Molecular Pharmacology, 2025):

Target: T1, TRPV3 in KU-19-19 cells (Homo sapiens, UniProt Q8NET8)
T1 construct: host or cells: KU-19-19
T1 sequence (Q8NET8 1-790): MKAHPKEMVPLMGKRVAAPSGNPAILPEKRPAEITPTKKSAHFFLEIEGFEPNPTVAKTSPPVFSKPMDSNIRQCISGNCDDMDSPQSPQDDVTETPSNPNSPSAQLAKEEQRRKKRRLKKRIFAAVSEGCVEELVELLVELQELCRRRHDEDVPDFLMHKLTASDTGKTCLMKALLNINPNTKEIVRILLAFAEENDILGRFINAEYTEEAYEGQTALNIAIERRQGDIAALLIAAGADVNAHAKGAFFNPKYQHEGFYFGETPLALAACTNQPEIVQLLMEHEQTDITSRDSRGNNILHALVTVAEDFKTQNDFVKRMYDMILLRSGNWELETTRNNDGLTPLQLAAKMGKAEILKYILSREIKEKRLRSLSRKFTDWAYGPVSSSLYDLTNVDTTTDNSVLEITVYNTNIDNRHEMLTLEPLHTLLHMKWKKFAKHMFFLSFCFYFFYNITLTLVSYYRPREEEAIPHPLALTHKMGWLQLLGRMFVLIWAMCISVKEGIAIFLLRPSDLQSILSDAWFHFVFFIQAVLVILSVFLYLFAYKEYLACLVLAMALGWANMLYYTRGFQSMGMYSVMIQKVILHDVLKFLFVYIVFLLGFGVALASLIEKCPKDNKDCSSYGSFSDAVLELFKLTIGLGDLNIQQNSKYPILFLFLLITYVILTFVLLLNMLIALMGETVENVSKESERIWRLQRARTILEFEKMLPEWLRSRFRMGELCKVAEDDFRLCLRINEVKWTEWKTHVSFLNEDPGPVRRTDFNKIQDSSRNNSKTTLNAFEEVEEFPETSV
Assay: whole-cell patch-clamp recordings in KU-19-19 cells
Assay type: cell-based
Experimental: Supplementation of the cellular cholesterol content in KU-19-19 cells was performed by adding cholesterol-loaded methyl-β-cyclodextrin (MβCD) to the cells. Cholesterol was dissolved in ethanol (20 mg/mL) by heating at 65 °C for 15 minutes. The cholesterol solution was then added dropwise to a 250 mM MβCD solution prepared in phosphate-buffered solution (PBS; Sigma Aldrich) at a 1:4 (v/v) ratio, yielding a stock containing 200 mM MβCD-cholesterol. KU-19-19 cells were incubated for 15 minutes at 37 °C in HBS containing 2.5 mM MβCD-cholesterol. As a control, KU-19-19 cells were incubated in HBS without MβCD-cholesterol supplement under the same conditions. […]
Fig. 3 TRPV3 is functionally expressed in bladder cancer cells. (A–D) Activation of TRPV3 in KU-19-19 (A, B) and CAL-29 (C, D) bladder cancer cells by AV3-1, assessed by fura-2-based Ca^2+ assays. […] (B, D) Quantification of peak [Ca^2+]ᵢ responses from KU-19-19 (B) and CAL-29 (D) cells under the indicated treatment conditions. Statistical significance was determined using one-way ANOVA with Tukey post hoc analysis; ∗P < .05. […] Current amplitudes were recorded using voltage ramps from −100 mV to +100 mV (500-millisecond duration) such as in F and expressed as current density (pA/pF) measured at +100 mV and −100 mV. […] Statistical significance was determined using Kruskal-Wallis ANOVA followed by Conover test; ∗P < .05. […]

- currents under cholesterol-loaded conditions compared with untreated cells (50 μM AV3-1, KU-19-19 cells preincubated with 2.5 mM MβCD-cholesterol): substantially larger currents
SMILES: COC(=O)C12CN(Cc3ccccc3)CC1(C(=O)OC)CN(Cc1ccccc1)C2 (centres unmarked) [AV3-1]
- TRPV3 currents in KU-19-19 cells (50 μM AV3-1, repeated applications): robustly and reproducibly activated TRPV3 currents
